From patent publication US7176281B2 (priority 2003, dated 2007)
Where a SMILES comes first, the peptide text is derived from it.

Key:
[1] = system: murine macrophage cell line J774; test: LPS- or TNF-induced PGE2 production in J774 macrophages; format: cell-based, mouse; conditions: J774 cells, 20 h
Protocol: The murine macrophage cell line J774 (ATCC, USA) was cultured at 37° C. in humidified 5% CO2/95% air in Dulbecco's Modified Eagle's Medium (DMEM) containing 10% foetal bovine serum, 2 mM glutamine, 20 mM Hepes, 100 Ul/ml penicillin and 100 μg/ml streptomycin. After growing to confluence, the cells were dislodged by scrapping, plated in 12 culture wells at a density of 5×10^5 cells/ml per well, and allowed to adhere for 2 h. […] Culture medium supernatants were collected after centrifugation (10,000 g, 4° C., 15 min) and stored at −80° C. prior to measurement of PGE2, which was done according to the manufacturer's instructions (EIA kit-monoclonal, Cayman Chemical, USA).
FIGS. 13A and 13B show modulation of LPS- and TNF-stimulated PGE2 release. […] Supernatants were collected, and PGE2 release in the medium was determined by ELISA. Results are shown as the mean±SEM of 5 experiments performed in duplicate. **P<0.01 between inhibitor-treated and untreated cultures.

[2] = system: mammalian (human and rat) type IIA sPLA2; format: binding
[3] = system: sPLA2; test: Inhibition of sPLA2 activity at fixed concentrations; format: biochemical
[4] = system: Tg197 transgenic mice (chronic inflammatory polyarthritis); test: Tg197 transgenic mouse arthritis model, experiment 2 (4 weeks, time course); format: in vivo
Protocol: In experiment 2, mice were divided into 6 groups (A–F), and were injected i.p with 3 weekly doses (150 μg peptide in 50 μL DMSO per dose) of either the test peptide P-NT.II or the control peptide with the scrambled sequence for 4 consecutive weeks. Tg197 mice in Group B (n=18) were further divided into 4 sub-groups (B1, B2, B3, B4). At the end of 1st week, four Tg197 mice from Group B (sub-group B1) were sacrificed and both hind legs taken for histological processing and scorings. The remaining Tg197 mice from the other sub-groups B were continued with 3 regular doses of injections per week, and four Tg197 mice from each sub-group B2 and B3, were sacrificed at the end of 2nd and 3rd weeks, respectively. At the end of 4th week, all remaining Tg197 mice ([…]) were sacrificed for collection of joint specimens.
Disease monitoring was done by gross observations based on body weight measurements and arthritis scoring, which were done twice weekly after treatment until all the animals were sacrificed at 5th week in experiment 1, or at 4th week in experiment 2. Arthritis score (AS) was recorded on both ankle joints, and average scores as shown below were taken: • 0=no arthritis (normal appearance and flexion); • 0.5=onset of arthritis (mild joint swelling); • 1.0=mild arthritis (joint distortion); • 1.5=as above+finger deformation, less strength on flexion; • […]=moderate arthritis (severe swelling, joint deformation, no strength on flexion); • 2.5=as above+finger deformation in paws; • 3.0=heavy arthritis (ankylosis detected on flexion and severely impaired movement).
For histopathological scoring, both hind legs were dissected and fixed in 10% formaldehyde overnight, decalcified in citrate-buffered formic acid for 3 days at 4° C., and processed for light microscopy (LM). • Histopathological score (HS) was evaluated as follows: • 0=no detectable pathology, • 1=hyperplasia of the synovial membrane and presence of polymorphonuclear infiltrates • 2=pannus and fibrous tissue formation and focal subchondrial bone erosion • 3=articular cartilage destruction and bone erosion • 4=articular cartilage destruction and extensive bone erosion.
Transmission electron microscopy (TEM): Ankle joints dissected from the left hind leg of each mouse were split open longitudinally through the midline between the tibia and the talus, prefixed overnight with 2.5% glutaraldehyde in phosphate buffer, pH 7.4 (PB) and rinsed with PB. After fixing with 1% osmium tetroxide in PB for 2 h, they were dehydrated in a graded series of ethanol and processed into Araldite. Semi-thin sections (1.0μ) were cut and stained with methylene blue to observe the orientation and for histopathological scorings under the light microscope. Ultra-thin sections (80–90 nm) were then cut with an ultramicrotome (Riechert-Jung Ultracut E), mounted on copper grids, counterstained with uranyl acetate and lead citrate, and evaluated under electron microscope (CM120 Biotwin, FEI Company).
Anti-inflammatory activity of the candidate peptide P-NT.II was examined as a new treatment option for modulating rheumatoid arthritis (RA) in a transgenic animal model. To evaluate the potential effectiveness of the peptide as prophylaxis against RA, two separate experiments were performed in 4 week-old transgenic (Tg197) mice and non-transgenic wild-type (wt) mice. These transgenic mice (Tg197) express human tumor necrosis factor (TNFα), a cytokine which has been implicated in the pathogenesis of human RA.

CC[C@H](C)[C@H](NC(=O)[C@H](Cc1ccc(O)cc1)NC(=O)[C@@H](NC(=O)CNC(=O)[C@H](CC(=O)O)NC(=O)[C@H](Cc1c[nH]c2ccccc12)NC(=O)[C@@H](NC(=O)[C@H](Cc1c[nH]cn1)NC(=O)[C@@H](NC(=O)[C@H](CC(=O)O)NC(=O)[C@@H](NC(=O)[C@H](CCCNC(=N)N)NC(=O)CNC(=O)[C@@H](N)CC(C)C)C(C)C)[C@@H](C)CC)C(C)C)C(C)C)C(=O)N[C@@H](CCCNC(=N)N)C(=O)NCC(=O)N[C@@H](CCCNC(=N)N)C(=O)O [P-NT.II] (H-LGRVDIHVWDGVYIRGR-OH; N-terminus and C-terminus assumed)
LPS- or TNF-induced PGE2 production [1]: dose-dependently inhibit | competition with labeled P-NT.II for binding to type IIA sPLA2 [2]: inhibited | inhibition of sPLA2 activity ([3]; 6 μM): 80% | inhibition of sPLA2 activity ([3]; 10 μM): 90% | % of total at indicated HS scores, HS 2 ([4]; 1 wk treatment): 100% | % of total at indicated HS scores, HS 3 ([4]; 1 wk treatment): 0% | % of total at indicated HS scores, HS 4 ([4]; 1 wk treatment): 0% | Mean HS ± SEM ([4]; 1 wk treatment): 2.12 ± 0.12 | HS compared to untreated or scrambled peptide treated group ([4]; 1–4 weeks): significantly reduced HS | ultrastructural features of the articular chondrocytes (TEM) ([4]; 1–4 weeks post-treatment): did not significantly differ from those seen in the joints of normal wildtype mice | % of total at indicated HS scores, HS 2 ([4]; 2 wk treatment): 100% | % of total at indicated HS scores, HS 3 ([4]; 2 wk treatment): 0% | % of total at indicated HS scores, HS 4 ([4]; 2 wk treatment): 0% | Mean HS ± SEM ([4]; 2 wk treatment): 2.37 ± 0.12 | % of total at indicated HS scores, HS 2 ([4]; 3 wk treatment): 75% | % of total at indicated HS scores, HS 3 ([4]; 3 wk treatment): 25% | % of total at indicated HS scores, HS 4 ([4]; 3 wk treatment): 0% | Mean HS ± SEM ([4]; 3 wk treatment): 2.50 ± 0.20 | HS of synovitis, cartilage degradation and bone erosion ([4]; 4 weeks post-treatment, n=4/group): protective effect | % of total at indicated HS scores, HS 2 ([4]; 4 wk treatment): 75% | % of total at indicated HS scores, HS 3 ([4]; 4 wk treatment): 25% | % of total at indicated HS scores, HS 4 ([4]; 4 wk treatment): 0% | Mean HS ± SEM ([4]; 4 wk treatment): 2.62 ± 0.31 | number of inflammatory cells in the synovium ([4]; as early as 1 week after initiation of treatment): reduced | joints either normal or only mildly affected by arthritis ([4]; first two weeks after peptide treatment): 100% | chondrocyte necrobiosis as well as bone erosions ([4]; histopathologic analysis of joints): significantly reduced | joints either normal or only mildly affected by arthritis ([4]; last two weeks after peptide treatment): 75%
